# Test results: ChEMBL document CHEMBL1153303, “Iodine-catalyzed one-pot synthesis and antimalarial activity evaluation of symmetrically and asymmetrically substituted 3,6-diphenyl[1,2,4,5]tetraoxanes” (Bioorg Med Chem Lett, 2009)
# Experiments:
# [1] = tested on: Plasmodium falciparum; assay: Antimalarial activity against chloroquine-sensitive Plasmodium falciparum D6 in erythrocytes after 72 hrs by LDH activity; type: functional, organism-based; conditions: D6, 72 h
# [2] = Selectivity index, ratio of IC50 for african green monkey (Cercopithecus aethiops) Vero cells to IC50 for Plasmodium falciparum D6; type: toxicity, cell-based; conditions: read-out: Ratio IC50
# [3] = tested on: Vero; assay: Cytotoxicity against african green monkey Vero cells up to 16.72 uM after 72 hrs by neutral red assay; type: cell-based; conditions: chlorocebus sabaeus
# [4] = Selectivity index, ratio of IC50 for african green monkey (Cercopithecus aethiops) Vero cells to IC50 for Plasmodium falciparum W2; type: toxicity, cell-based; conditions: read-out: Ratio IC50
# [5] = tested on: Plasmodium falciparum; assay: Antimalarial activity against chloroquine-resistant Plasmodium falciparum W2 in erythrocytes after 72 hrs by LDH activity; type: functional, organism-based; conditions: W2, 72 h
Structure (SMILES),IC50 [1] [nM],selectivity ratio [2],Activity [3],selectivity ratio [4],IC50 [5] [nM]
CCc1ccc(C2OOC(c3ccc(CC)cc3)OO2)cc1 (stereo not drawn),990,> 15.9,Non-toxic,> 15.9,–
CCc1ccc(C2OOC(c3ccc(C)cc3)OO2)cc1 (stereo not drawn),–,> 43.6,Non-toxic,> 36.7,–
CCN(CC)CCCC(C)Nc1ccnc2cc(Cl)ccc12 (stereo not drawn) [CHLOROQUINE],–,–,Non-toxic,–,–
CCCc1ccc(C2OOC(c3ccc(CCC)cc3)OO2)cc1 (stereo not drawn),–,> 23.8,Non-toxic,> 19,–
CCCCc1ccc(C2OOC(c3ccc(CCCC)cc3)OO2)cc1 (stereo not drawn),–,> 3.7,Non-toxic,> 2.8,–
CC(C)c1ccc(C2OOC(c3ccc(C(C)C)cc3)OO2)cc1 (stereo not drawn),–,> 21.6,Non-toxic,> 14,–
CC(C)(C)c1ccc(C2OOC(c3ccc(C(C)(C)C)cc3)OO2)cc1 (stereo not drawn),–,> 6.1,Non-toxic,> 3.4,–
C[C@@H]1CC[C@H]2[C@@H](C)C(=O)O[C@@H]3O[C@@]4(C)CC[C@@H]1[C@]32OO4 [ARTEMISININ],–,> 476,Non-toxic,> 1400,15
COC(=O)c1ccc(C2OOC(c3ccc(C)cc3)OO2)cc1 (stereo not drawn),3790,> 4,Non-toxic,> 2.5,6010
Cc1ccc(C2OOC(c3ccc(C(C)(C)C)cc3)OO2)cc1 (stereo not drawn),–,> 25.1,Non-toxic,> 19,–
COc1ccc(C2OOC(c3ccc(C)cc3)OO2)cc1 (stereo not drawn),–,> 21.6,Non-toxic,> 15.4,–
Cc1ccc(C2OOC(c3ccc(C(C)C)cc3)OO2)cc1 (stereo not drawn),–,> 26.4,Non-toxic,> 20.7,–
